How the values were obtained:
corn [1] = experiment: Test C postemergence; type: in vivo, Zea mays; conditions: 10 days, 0 to 100 scale (0 no effect, 100 complete control)
In short: (§1)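 Seeds sown in loam soil–sand blend received a directed preemergence soil spray of test chemical in non-phytotoxic solvent with surfactant; postemergence plants (2–10 cm, one- to two-leaf stage) were sprayed with the same formulation. Greenhouse-held 10 days, then visually rated for injury versus untreated controls, 0 (no effect) to 100 (complete control).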

kochia [2] = experiment: Test C preemergence; type: in vivo, Bassia scoparia; conditions: preemergence, 0 to 100 scale (0 no effect, 100 complete control)
In short: as §1

barnyardgrass [3] = experiment: Test D flooded paddy test; type: in vivo, Echinochloa crus-galli; conditions: 250 g ai/ha, applied to paddy water, visual rating after 13 to 14 days, scale 0 to 100 (0 no effect, 100 complete control)
In short: (§2)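 Visual ratings from 0, meaning no effect, to 100, meaning complete control, were assigned against untreated controls 13 to 14 days after compounds were added to the floodwater of pots kept 3 cm deep, with plants at the 2-leaf stage.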

soybean [4] = experiment: Test C postemergence; type: in vivo, Glycine max; conditions: 10 days, 0 to 100 scale (0 no effect, 100 complete control)
In short: as §1

oat, wild [5] = experiment: Test C preemergence; type: in vivo, Avena fatua; conditions: preemergence, 0 to 100 scale (0 no effect, 100 complete control)
In short: as §1

blackgrass [6] = experiment: Test C postemergence; type: in vivo, Alopecurus myosuroides; conditions: 10 days, 0 to 100 scale (0 no effect, 100 complete control)
In short: as §1

pigweed, palmer [7] = experiment: Test C preemergence; type: in vivo, Amaranthus palmeri; conditions: preemergence, 0 to 100 scale (0 no effect, 100 complete control)
In short: as §1

horseweed = experiment: Test C postemergence; type: in vivo, Erigeron canadensis; conditions: 10 days, 0 to 100 scale (0 no effect, 100 complete control)
In short: as §1

barnyardgrass [8] = experiment: Test C preemergence; type: in vivo, Echinochloa crusgalli; conditions: preemergence, 0 to 100 scale (0 no effect, 100 complete control)
In short: as §1

wheat [9] = experiment: Test C preemergence; type: in vivo, Triticum aestivum; conditions: preemergence, 0 to 100 scale (0 no effect, 100 complete control)
In short: as §1

ducksalad = experiment: Test D flooded paddy test; type: in vivo, Heteranthera limosa; conditions: 250 g ai/ha, applied to paddy water, visual rating after 13 to 14 days, scale 0 to 100 (0 no effect, 100 complete control)
In short: as §2

corn [10] = experiment: Test C preemergence; type: in vivo, Zea mays; conditions: preemergence, 0 to 100 scale (0 no effect, 100 complete control)
In short: as §1

oat, wild [11] = experiment: Test C postemergence; type: in vivo, Avena fatua; conditions: 10 days, 0 to 100 scale (0 no effect, 100 complete control)
In short: as §1

green foxtail [12] = experiment: Test C preemergence; type: in vivo, Setaria viridis; conditions: preemergence, 0 to 100 scale (0 no effect, 100 complete control)
In short: as §1

ragweed [13] = experiment: Test C postemergence; type: in vivo, Ambrosia artemisiifolia; conditions: 10 days, 0 to 100 scale (0 no effect, 100 complete control)
In short: as §1

sedge, umbrella = experiment: Test D flooded paddy test; type: in vivo, Cyperus difformis; conditions: 250 g ai/ha, applied to paddy water, visual rating after 13 to 14 days, scale 0 to 100 (0 no effect, 100 complete control)
In short: as §2

galium = experiment: Test C postemergence; type: in vivo, Galium aparine; conditions: 10 days, 0 to 100 scale (0 no effect, 100 complete control)
In short: as §1

green foxtail [14] = experiment: Test C postemergence; type: in vivo, Setaria viridis; conditions: 10 days, 0 to 100 scale (0 no effect, 100 complete control)
In short: as §1

ragweed [15] = experiment: Test C preemergence; type: in vivo, Ambrosia artemisiifolia; conditions: preemergence, 0 to 100 scale (0 no effect, 100 complete control)
In short: as §1

ryegrass, Italian [16] = experiment: Test C postemergence; type: in vivo, Lolium multiflorum; conditions: 10 days, 0 to 100 scale (0 no effect, 100 complete control)
In short: as §1

ryegrass, Italian [17] = experiment: Test C preemergence; type: in vivo, Lolium multiflorum; conditions: preemergence, 0 to 100 scale (0 no effect, 100 complete control)
In short: as §1

pigweed, palmer [18] = experiment: Test C postemergence; type: in vivo, Amaranthus palmeri; conditions: 10 days, 0 to 100 scale (0 no effect, 100 complete control)
In short: as §1

rice = experiment: Test D flooded paddy test; type: in vivo, Oryza sativa; conditions: 250 g ai/ha, applied to paddy water, visual rating after 13 to 14 days, scale 0 to 100 (0 no effect, 100 complete control)
In short: as §2

soybean [19] = experiment: Test C preemergence; type: in vivo, Glycine max; conditions: preemergence, 0 to 100 scale (0 no effect, 100 complete control)
In short: as §1

blackgrass [20] = experiment: Test C preemergence; type: in vivo, Alopecurus myosuroides; conditions: preemergence, 0 to 100 scale (0 no effect, 100 complete control)
In short: as §1

barnyardgrass [21] = experiment: Test C postemergence; type: in vivo, Echinochloa crusgalli; conditions: 10 days, 0 to 100 scale (0 no effect, 100 complete control)
In short: as §1

kochia [22] = experiment: Test C postemergence; type: in vivo, Bassia scoparia; conditions: 10 days, 0 to 100 scale (0 no effect, 100 complete control)
In short: as §1

wheat [23] = experiment: Test C postemergence; type: in vivo, Triticum aestivum; conditions: 10 days, 0 to 100 scale (0 no effect, 100 complete control)
In short: as §1

COC[C@H]1CN(C(=O)c2cc(-n3cnc(C(C)C)n3)ccc2OC)c2cccc(Cl)c2O1 [Compound 314]
Plant response rating, Corn (corn [1]; 500 g ai/ha, postemergence): 90 | Plant response rating, Corn (corn [1]; Postemergence, 125 g ai/ha): 80 | Kochia plant response rating (kochia [2]; 500 g ai/ha): 100 | Kochia plant response rating (kochia [2]; Test C, 125 g ai/ha): 90 | Plant response rating, Barnyardgrass (Flood) (barnyardgrass [3]): 15 | Plant response rating, Soybean (soybean [4]; 500 g ai/ha, postemergence): 100 | Plant response rating, Soybean (soybean [4]; Postemergence, 125 g ai/ha): 100 | Oat, Wild plant response rating (oat, wild [5]; 500 g ai/ha): 80 | Oat, Wild plant response rating (oat, wild [5]; Test C, 125 g ai/ha): 60 | Plant response rating, Blackgrass (blackgrass [6]; 500 g ai/ha, postemergence): 100 | Plant response rating, Blackgrass (blackgrass [6]; Postemergence, 125 g ai/ha): 80 | Pigweed, Palmer plant response rating (pigweed, palmer [7]; 500 g ai/ha): 100 | Pigweed, Palmer plant response rating (pigweed, palmer [7]; Test C, 125 g ai/ha): 100 | Plant response rating, Horseweed (horseweed; 500 g ai/ha, postemergence): 90 | Plant response rating, Horseweed (horseweed; Postemergence, 125 g ai/ha): 100 | Barnyardgrass plant response rating (barnyardgrass [8]; 500 g ai/ha): 100 | Barnyardgrass plant response rating (barnyardgrass [8]; Test C, 125 g ai/ha): 70 | Wheat plant response rating (wheat [9]; 500 g ai/ha): 40 | Wheat plant response rating (wheat [9]; Test C, 125 g ai/ha): 20 | Plant response rating, Ducksalad (Flood) (ducksalad): 85 | Corn plant response rating (corn [10]; 500 g ai/ha): 0 | Corn plant response rating (corn [10]; Test C, 125 g ai/ha): 0 | Plant response rating, Oat, Wild (oat, wild [11]; 500 g ai/ha, postemergence): 40 | Plant response rating, Oat, Wild (oat, wild [11]; Postemergence, 125 g ai/ha): 40 | Foxtail, Green plant response rating (green foxtail [12]; 500 g ai/ha): 100 | Foxtail, Green plant response rating (green foxtail [12]; Test C, 125 g ai/ha): 100 | Plant response rating, Ragweed (ragweed [13]; 500 g ai/ha, postemergence): 90 | Plant response rating, Ragweed (ragweed [13]; Postemergence, 125 g ai/ha): 80 | Plant response rating, Sedge, Umbrella (Flood) (sedge, umbrella): 100 | Plant response rating, Galium (galium; 500 g ai/ha, postemergence): 100 | Plant response rating, Galium (galium; Postemergence, 125 g ai/ha): 100 | Plant response rating, Foxtail, Green (green foxtail [14]; 500 g ai/ha, postemergence): 90 | Plant response rating, Foxtail, Green (green foxtail [14]; Postemergence, 125 g ai/ha): 60 | Ragweed plant response rating (ragweed [15]; 500 g ai/ha): 70 | Ragweed plant response rating (ragweed [15]; Test C, 125 g ai/ha): 50 | Plant response rating, Ryegrass, Italian (ryegrass, Italian [16]; 500 g ai/ha, postemergence): 90 | Plant response rating, Ryegrass, Italian (ryegrass, Italian [16]; Postemergence, 125 g ai/ha): 80 | Ryegrass, Italian plant response rating (ryegrass, Italian [17]; 500 g ai/ha): 100 | Ryegrass, Italian plant response rating (ryegrass, Italian [17]; Test C, 125 g ai/ha): 100 | Plant response rating, Pigweed, Palmer (pigweed, palmer [18]; 500 g ai/ha, postemergence): 90 | Plant response rating, Pigweed, Palmer (pigweed, palmer [18]; Postemergence, 125 g ai/ha): 60 | Plant response rating, Rice (Flood) (rice): 15 | Soybean plant response rating (soybean [19]; 500 g ai/ha): 90 | Soybean plant response rating (soybean [19]; Test C, 125 g ai/ha): 40 | Blackgrass plant response rating (blackgrass [20]; 500 g ai/ha): 70 | Blackgrass plant response rating (blackgrass [20]; Test C, 125 g ai/ha): 20 | Plant response rating, Barnyardgrass (barnyardgrass [21]; 500 g ai/ha, postemergence): 60 | Plant response rating, Barnyardgrass (barnyardgrass [21]; Postemergence, 125 g ai/ha): 30 | Plant response rating, Kochia (kochia [22]; 500 g ai/ha, postemergence): 90 | Plant response rating, Kochia (kochia [22]; Postemergence, 125 g ai/ha): 90 | Plant response rating, Wheat (wheat [23]; 500 g ai/ha, postemergence): 30 | Plant response rating, Wheat (wheat [23]; Postemergence, 125 g ai/ha): 20

From US20260262643A1, “HERBICIDAL BENZOXAZINES” (FMC CORPORATION, priority 2022, published 2026)
